We go through 2 compounds from paper PMC8069016, “Matrix Effects of the Hydroethanolic Extract of Calyces of Physalis peruviana L. on Rutin Pharmacokinetics in Wistar Rats Using Population Modeling” (Pharmaceutics, 2021).

The structures appear in SMILES notation. Read-outs that look alike come from different tables or passages of the source.

Data set [1] can be described thus: Pharmacokinetics of rutin after intravenous administration, non-compartmental analysis. The following applies: for AUC(0-inf) / MRT / half-life / clearance / Vd: male, Wistar, rat, iv; for Vd: read-out: Vdss. The format is in vivo, Wistar rats. The procedure:
(§1) The PK studies of rutin, both pure and from the extract of calyces of P. peruviana, were carried out using 50 male Wistar rats (7–11 weeks old and 250–300 g) obtained from the animal facility of the Department of Pharmacy of the Universidad Nacional de Colombia. The animals were kept under constant temperature conditions (22 ± 1 °C), with light/dark cycles of 12 h. They were provided with water and food ad libitum and fasted for 12 h before the assays. This protocol was approved by the ethics committee of the science faculty (Act 06, 2015, project 40831, 22 June 2015).
For intravenous (i.v.) administration, the extract was prepared in sodium chloride solution (0.9% NaCl), vortexed, and sonicated 3–4 times for 15 min. Rutin was first dissolved in DMSO and then diluted in 0.9% NaCl. The clear solutions were administrated via the lateral tail vein of the rats. For the oral route (p.o.) experiments, the extract and rutin were suspended in water close to the time for oral gavage dosing. […] Rutin doses below 1.45 (i.v.) or 75 (p.o.) mg/kg could not show enough quantifiable analytical signals in blood plasma. For the extract, the doses were close to the active ones, according to previous studies by our group.
Samples of the animals’ blood (approximately 250 µL) were taken by puncture in the lateral tail vein and collected in heparinized tubes at times 0, 0.05, 0.166, 0.333, 0.5, 0.75, 1, 1.5, 2, 3, 4, 6, 8, and 12 h for the i.v. experiments and at times 0, 0.083, 0.25, […], 0.75, 1, 2, 3, 4, 6, 8, 10, 12, and 24 h for the p.o. experiments.
Blood plasma aliquots (50 µL) were added to a chrysin standard solution (internal standard (IS)) at a final concentration of 1000 ng/mL. Proteins were precipitated with methanol (1:2 v:v), and clear supernatants were obtained by centrifugation at 1200× g and at 4 °C for 15 min; 6 µL of each aliquot was used for instrumental analyses. Another 50 µL of blood plasma aliquots with the IS were treated with β-glucuronidase/arylsulfatase (120 Fishman units) in order to indirectly quantify the Q3OG and quercetin-3-O-sulfate (Q3OS) present in these samples by conversion into the parent quercetin (deconjugation). The deconjugation reaction was promoted by incubating the samples with the enzymes at pH 5.5 and 37 °C for 30 min. Reactions with the Q3OG standard (10,000 ng/mL) and blank blood plasma were included in each analysis set as positive and negative controls, respectively. After the reaction, proteins were precipitated, as indicated above.
Rutin and quercetin quantification was carried out by UHPLC-UV using a Chromaster RS chromatograph (Hitachi, Tokyo, Japan) and a Kinetex® EVO C18 column (2.6 µm, 100 × 2.1 mm; Phenomenex, Torrance, CA, USA) with an oven setting at 30 °C and a UV detector at 260 nm. The mobile phase consisted of 0.1% formic acid in water (A) and in acetonitrile (B), flowing at 0.5 mL/min in a gradient from 75% A to 65% A up to 9.3 min and 5 min of re-equilibration. The method was validated according to FDA guidelines.
The PK parameters of rutin and quercetin (produced by deconjugation of Q3OG and Q3OS) were first determined by non-compartmental analysis (NCA) using the software program Pkanalix 2019R1 (Lixoft®, Paris, France), set to linear trapezoidal integral mode. The area under the curve to infinity (AUC0-INF), clearance (Cl), volume of distribution at the steady state (Vdss), volume of distribution associated with the terminal phase (Vdz), first-order rate constant of elimination (k), terminal half-life (t1/2), mean residence time (MRT), maximum observed concentration (Cmax), and time of maximum observed concentration (tmax) were determined for the analytes detected for each intervention.

Data set [2] in a line: Pharmacokinetics of quercetin (deconjugated Q3OG and Q3OS) after oral administration, non-compartmental analysis. The format is in vivo, Wistar rats. As to conditions: p.o.; only quercetin after deconjugation of Q3OG and Q3OS was measurable. The protocol:
as §1
For intravenous (i.v.) administration, the extract was prepared in sodium chloride solution (0.9% NaCl), vortexed, and sonicated 3–4 times for 15 min. Rutin was first dissolved in DMSO and then diluted in 0.9% NaCl. The clear solutions were administrated via the lateral tail vein of the rats. […] Rutin doses below 1.45 (i.v.) or 75 (p.o.) mg/kg could not show enough quantifiable analytical signals in blood plasma. […]
Blood plasma aliquots (50 µL) were added to a chrysin standard solution (internal standard (IS)) at a final concentration of 1000 ng/mL. […] Another 50 µL of blood plasma aliquots with the IS were treated with β-glucuronidase/arylsulfatase (120 Fishman units) in order to indirectly quantify the Q3OG and quercetin-3-O-sulfate (Q3OS) present in these samples by conversion into the parent quercetin (deconjugation). […]

Data set [3] can be described thus: Population pharmacokinetic modeling of rutin, intravenous administration. The format is in vivo, Wistar rats. The following applies: rutin i.v.; for k12 pop / k21 pop / k pop / V_pop: Table S1. The procedure: Population pharmacokinetic (PopPK) modeling for rutin and quercetin (produced by deconjugation of Q3OG and Q3OS) was performed using the software program Monolix 2019R1 (Lixoft®, Paris, France). One- and two-compartment structural models with first-order elimination were evaluated, and double first-order absorption was included for the oral dosing experiments. Analyses of the categorical covariates (pure rutin, extract, and doses) were performed, and those that were significant were added to the model (p < 0.05 for Pearson’s and Wald tests with stochastic approximation). Correlations between random effects of the parameters were also tested and added to the model, where appropriate (p < 0.05 for t-test). The final model, including the model of the residual error, was selected based on the observation of individual fit plots, Akaike’s information criteria (AIC) values, visual assessment of the observation-versus-prediction plot, the precision of the estimated parameters, and evaluation of the distribution of residuals. The model was internally validated by a visual predictive check (VPC) with 1000 simulated data.
The general model equation for the PK parameters was (2) Pi=Ppop+βcovariate n+ηi,p, where Pi is the individual parameter, Ppop is the population parameter, β is a parameter representing the variability due to the significant covariate n, and η(i,p) is the individual deviation from Ppop. According to the probability distribution of individual parameters, P in the equation could be expressed as logP or logitP (logP/((1 − P)).
Rutin (i.v.) from both sources was better fitted to a two-compartment model described by the following parameters: volume of the central compartment (V), k, and the distribution rate constants k12 and k21 (Figure 3a). The […] differential equations representing this model are expressed in Equations (3) and (4), where X1 and X2 are the amounts of the drug in the central and peripheral compartments, respectively. (3) dX1/dt=k21X2−k12+kX1 (4) dX2/dt=k12X1−k21X2
The population parameters in Table 4 correspond to those of pure rutin (for the dosage set) that was used as a reference in the analysis of covariates. A similarity was noted between the values for Vpop (0.0646 L/kg) and Vdz of pure rutin from the NCA, especially at 2.9 mg/kg (0.068 L/kg). The Clpop parameter, estimated from Vpop and kpop, was equivalent to the Cl of pure rutin from the NCA (in both cases 0.095 L/h/kg for the set of doses). […] Equations (5)–(8) describe the model of covariates, where η is the individual deviation from Ppop. (5) log(V/1−V)=log(Vpop/1−Vpop)+βVGEXT+ηV (6) logk=logkpop+βkGEXT+ηk (7) logk12=logk12pop (8) logk21=logk21pop

Details of data set [4]: method as in doi:10.1016/j.tifs.2017.07.008, PMID 32162346, PMID 30614249. As to conditions: low solubility and low permeability; cited from earlier work.
Data set [5] is described as follows: Stability in plasma (bioanalytical method validation). In kind it is in vitro ADME, rats. As to conditions: Wistar, rat; plasma at acidic pH; 2 h at 4 °C, 30 d at −80 °C, and 3 freeze/thaw cycles. The procedure:
Rutin and quercetin quantification was carried out by UHPLC-UV using a Chromaster RS chromatograph (Hitachi, Tokyo, Japan) and a Kinetex® EVO C18 column (2.6 µm, 100 × 2.1 mm; Phenomenex, Torrance, CA, USA) with an oven setting at 30 °C and a UV detector at 260 nm. The mobile phase consisted of 0.1% formic acid in water (A) and in acetonitrile (B), flowing at 0.5 mL/min in a gradient from 75% A to 65% A up to 9.3 min and 5 min of re-equilibration. The method was validated according to FDA guidelines. The UHPLC-UV method used for rutin and quercetin quantification in the blood plasma samples was selective and specific for these analytes and for the IS (Figure S2) and met all the criteria of the FDA guidelines. Linearity was described for the equations y = 0.00042x + 0.00910 (r^2 0.9996) and y = 0.00056 − 0.00767 (r^2 0.99980) for rutin and quercetin, respectively, at the concentration range from 100 to 10,000 ng/mL with a 1/x^2 weighting factor. Accuracy and precision were ≥85.6% (as recovery) and ≤7.2% (as variation coefficient), respectively, for both analytes, and these parameters were not affected by dilutions of over-concentrated samples up to 20 times the upper limit of quantification (recovery ≥ 86.3%).

Where [6] appears, read: rutin in plasma, pure rutin i.v. 1.45 mg/kg.
[7] abbreviates: rutin in plasma, pure rutin i.v. 2.9 mg/kg.
Where [8] appears, read: run Pure rutin and extract model: final model.
[9] abbreviates: run Pure rutin and extract model: model of covariate 1.
Where [10] appears, read: run Pure rutin: one compartment model, first order elimination.
The mark [11] stands for this setting: run Pure rutin: selection of model error and final model.
The mark [12] stands for this setting: run Pure rutin: two-compartment model, first order elimination.
Setting [13] is: two-compartment popPK model, pure rutin (dosage set) as reference.

A word on the AUC(0-inf): it is total exposure, with the tail of the curve extrapolated. Low values mean low exposure, high ones high exposure. In general, MRT refers to a mean duration of stay, worked out from the concentration-time curve. A word on the half-life: it is the time in which the quantity being followed falls by half. The low end stands for rapid decline, the high end for slow decline. `C[C@@H]1O[C@@H](OC[C@H]2O[C@@H](Oc3c(-c4ccc(O)c(O)c4)oc4cc(O)cc(O)c4c3=O)[C@H](O)[C@@H](O)[C@@H]2O)[C@H](O)[C@H](O)[C@H]1O` [Rutin, quercetin-3-O-rutinoside]: in data set [1] (setting [6]), the AUC(0-inf) came out at 14900 ng·h/mL, the MRT was determined as 64.8 ± 10.6 min, the half-life is 39.6 ± 7.8 min and the Vd worked out at 0.11 ± 0.0306 L/kg. In data set [1] (setting [6]), the “AUC/dose × 10^−3” value is listed as 10,243.52 ± 1743.478 h/L, the Vdz is reported as 0.096 ± 0.027 L/kg and the k turned out to be 1.08 ± 0.195 h⁻¹. In addition, the clearance in data set [1] (rutin in plasma, pure rutin i.v. 1.45 mg/kg, read-out: Cl (converted)) was 1.67 mL/min/kg. Besides, in data set [1] (setting [7]), the AUC(0-inf) was found to be 33900 ng·h/mL, the MRT was found to be 48.6 ± 3.18 min, the half-life was 32.4 ± 3.72 min and the Vd came out at 0.07 ± 0.009 L/kg. Besides, in data set [1] (setting [7]), the “AUC/dose × 10^−3” value was 11,701.24 ± 992.522 h/L and the k was found to be 1.29 ± 0.159 h⁻¹. In addition, in data set [1] (rutin in plasma, pure rutin i.v. 2.9 mg/kg, read-out: Cl (converted)), the clearance is 1.5 mL/min/kg. The clearance in data set [1] (plasma, rutin i.v., pure rutin, set of doses, read-out: Cl from the NCA (converted)) was 1.58 mL/min/kg. In addition, in data set [1] (rutin in plasma, pure rutin i.v. 2.9 mg/kg, 2.9 mg/kg), the Vdz amounted to 0.068 ± 0.012 L/kg. In data set [1] (rutin in plasma, pure rutin i.v. 2.9 mg/kg, listed as pure rutin, 2.9 mg/kg), the Vdz is 0.068 L/kg. Besides, in data set [2], the “plasma concentrations of rutin or free quercetin after oral administration” value was “did not allow measurable plasma concentrations of rutin or free quercetin”. In data set [3] (setting [8]), this compound gave a k12 pop of 2.6 h⁻¹, a k21 pop of 13.6 h⁻¹ and a k pop of 1.47 h⁻¹. Moreover, in data set [3] (setting [9]), the V_pop is 5.9 e-5, the k12 pop is 2.62 h⁻¹, the k21 pop stood at 9.67 h⁻¹ and the k pop stood at 1.58 h⁻¹. In addition, in data set [3] (setting [10]), the V_pop is 7.81 e−5 and the k pop turned out to be 1.22 h⁻¹. Also, in data set [3] (setting [11]), the V_pop was 6.4e -5, the k12 pop came out at 2.5 h⁻¹, the k21 pop worked out at 16.8 h⁻¹ and the k pop stood at 1.48 h⁻¹. In data set [3] (setting [12]), this compound yielded a V_pop of 5.89e -5, a k12 pop of 5.24 h⁻¹, a k21 pop of 19.4 h⁻¹ and a k pop of 1.61 h⁻¹. Also, the Clpop in data set [3] (estimated from Vpop and kpop, set of doses) was 1.58 mL/min/kg. In data set [3] (setting [13]), the “Vpop (volume of the central compartment)” value stood at 0.0646 L/kg, the k12_pop is 2.6 h⁻¹, the k21_pop came out at 13.6 h⁻¹ and the “kpop (first-order rate constant of elimination)” value was 1.47 h⁻¹. Moreover, the “biopharmaceutical classification system class” value in data set [4] is given as “class IV”.
In data set [5], `O=c1c(O)c(-c2ccc(O)c(O)c2)oc2cc(O)cc(O)c12` [quercetin] gave a recovery of at least 87.8%.
